Source: patent US11472803B2, “7-substituted 1-aryl-naphthyridine-3-carboxylic acid amides and use thereof” (Bayer Aktiengesellschaft, priority 2016, dated 2022)

Molecular target: T1, human M2 receptor (Homo sapiens, UniProt P08172)
T1 construct: expressed in transfected cells; host or cells: CHO-DUKX (CHO-DUKX-M2-GIRK)
T1 sequence (P08172 1-466): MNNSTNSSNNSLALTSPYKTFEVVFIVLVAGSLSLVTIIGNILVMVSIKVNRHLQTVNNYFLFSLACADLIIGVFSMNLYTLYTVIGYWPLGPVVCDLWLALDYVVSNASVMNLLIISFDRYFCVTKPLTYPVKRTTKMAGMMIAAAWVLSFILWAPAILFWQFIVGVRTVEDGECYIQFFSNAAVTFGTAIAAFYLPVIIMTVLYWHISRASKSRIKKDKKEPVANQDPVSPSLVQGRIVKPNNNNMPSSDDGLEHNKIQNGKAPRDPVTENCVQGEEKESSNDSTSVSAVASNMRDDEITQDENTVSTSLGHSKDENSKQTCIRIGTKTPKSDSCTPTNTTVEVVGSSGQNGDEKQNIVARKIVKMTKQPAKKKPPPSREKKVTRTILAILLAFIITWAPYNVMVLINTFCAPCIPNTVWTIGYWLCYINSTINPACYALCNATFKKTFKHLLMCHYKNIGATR
Assay: Functional M2-GIRK1/4 activation test: allosteric potency (EC50) and efficiency at EC20 acetylcholine
Format: cell-based
Settings: CHO-DUKX-M2-GIRK cells; for EC50: voltage-sensitive dye, acetylcholine at EC20, in some cases mean of two or more determinations; for Emax: boosting of the acetylcholine effect at EC20 acetylcholine concentration
In short: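 Positive allosteric modulation measured as boosting of an EC20 acetylcholine response: hyperpolarization via GIRK1/4 in CHO-DUKX-M2-GIRK cells, monitored by membrane-potential dye fluorescence over 60 s after agonist, compound preadded. Hill-function fit gives EC50 and efficiency.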

SMILES	EC50 [nM]	Emax [%]
CC[C@H](NC(=O)c1cn(-c2ncc(F)cc2F)c2nc(N3CC[C@H](O)C3)c(F)cc2c1=O)C(F)(F)F [Example 152, 1-(3,5-Difluoropyridin-2-yl)-6-fluoro-7-[(3S)-3-hydroxypyrrolidin-1-yl]-4-oxo-N-[(2S)-1,1,1-trifluorobutan-2-yl]-1,4-dihydro-1,8-naphthyridine-3-carboxamide]	53	100
O=C(N[C@@H](C1CC1)C(F)(F)F)c1cn(-c2ncc(F)cc2F)c2nc(N3CC[C@H](O)C3)c(F)cc2c1=O [Example 153, N-[(1S)-1-Cyclopropyl-2,2,2-trifluoroethyl]-1-(3,5-difluoropyridin-2-yl)-6-fluoro-7-[(3S)-3-hydroxypyrrolidin-1-yl]-4-oxo-1,4-dihydro-1,8-naphthyridine-3-carboxamide]	48	99
CC(C)(NC(=O)c1cn(-c2ncc(F)cc2F)c2nc(N3CC[C@H](O)C3)c(F)cc2c1=O)C(F)(F)F [Example 154, 1-(3,5-Difluoropyridin-2-yl)-6-fluoro-7-[(3S)-3-hydroxypyrrolidin-1-yl]-4-oxo-N-(1,1,1-tri-fluoro-2-methylpropan-2-yl)-1,4-dihydro-1,8-naphthyridine-3-carboxamide]	97	100
Cc1cc(F)cc(C)c1-n1cc(C(=O)N[C@@H](C2CC2)C(F)(F)F)c(=O)c2cc(F)c(N3C[C@@H](O)[C@H](O)C3)nc21 [Example 175, N-[(1S)-1-Cyclopropyl-2,2,2-trifluoroethyl]-7-[(3R,4R)-3,4-dihydroxypyrrolidin-1-yl]-6-fluoro-1-(4-fluoro-2,6-dimethylphenyl)-4-oxo-1,4-dihydro-1,8-naphthyridine-3-carboxamide]	73	83
CN1CCN(c2nc3c(cc2F)c(=O)c(C(=O)N[C@@H](C2CC2)C(F)(F)F)cn3-c2c(F)cc(F)cc2F)C(CO)C1 (stereo partly drawn) [Example 176, N-[(1S)-1-Cyclopropyl-2,2,2-trifluoroethyl]-6-fluoro-7-[2-(hydroxymethyl)-4-methylpiperazin-1-yl]-4-oxo-1-(2,4,6-trifluorophenyl)-1,4-dihydro-1,8-naphthyridine-3-carboxamide]	110	91
Cc1cc(F)cc(C)c1-n1cc(C(=O)N[C@H](C2CC2)C(F)(F)F)c(=O)c2cc(F)c(N3C[C@@H](O)CC3=O)nc21 [Example 177, N-[(1R)-1-Cyclopropyl-2,2,2-trifluoroethyl]-6-fluoro-1-(4-fluoro-2,6-dimethylphenyl)-7-[(4S)-4-hydroxy-2-oxopyrrolidin-1-yl]-4-oxo-1,4-dihydro-1,8-naphthyridine-3-carboxamide]	530	77
CN1CCN(c2nc3c(cc2F)c(=O)c(C(=O)N[C@@H](C2CC2)C(F)(F)F)cn3-c2c(F)cc(F)cc2F)CC1CO (stereo partly drawn) [Example 179, N-[(1S)-1-Cyclopropyl-2,2,2-trifluoroethyl]-6-fluoro-7-[3-(hydroxymethyl)-4-methylpiperazin-1-yl]-4-oxo-1-(2,4,6-trifluorophenyl)-1,4-dihydro-1,8-naphthyridine-3-carboxamide]	27	100
O=C(NC(C(F)(F)F)C(F)(F)F)c1cn(-c2c(F)cc(F)cc2F)c2nc(N3CCCC[C@@H]3CO)c(F)cc2c1=O [Example 188, 6-Fluoro-N-(1,1,1,3,3,3-hexafluoropropan-2-yl)-7-[(2R)-2-(hydroxymethyl)piperidin-1-yl]-4-oxo-1-(2,4,6-trifluorophenyl)-1,4-dihydro-1,8-naphthyridine-3-carboxamide]	26	97
O=C(NC(C(F)(F)F)C(F)(F)F)c1cn(-c2c(F)cc(F)cc2F)c2nc(N3CCC(O)(CO)CC3)c(F)cc2c1=O [Example 189, 6-Fluoro-N-(1,1,1,3,3,3-hexafluoropropan-2-yl)-7-[4-hydroxy-4-(hydroxymethyl)piperidin-1-yl]-4-oxo-1-(2,4,6-trifluorophenyl)-1,4-dihydro-1,8-naphthyridine-3-carboxamide]	30	100

Stronger by EC50, values ahead:

EC50 [nM]	Emax [%]	SMILES
3.4	97	CC(C)(NC(=O)c1cn(-c2c(F)cc(F)cc2Cl)c2nc(N3C[C@@H](O)[C@H](O)C3)c(F)cc2c1=O)C(F)F [Example 141, 1-(2-Chloro-4,6-difluorophenyl)-N-(1,1-difluoro-2-methylpropan-2-yl)-7-[(3R,4R)-3,4-dihydroxypyrrolidin-1-yl]-6-fluoro-4-oxo-1,4-dihydro-1,8-naphthyridine-3-carboxamide]
16	94	O=C(N[C@@H](C1CC1)C(F)(F)F)c1cn(-c2c(F)cc(F)cc2F)c2nc(N3CCOCC3)c(F)cc2c1=O [Example 147, N-[(1S)-Cyclopropyl-2,2,2-trifluoroethyl]-6-fluoro-7-(morpholin-4-yl)-4-oxo-1-(2,4,6-trifluorophenyl)-1,4-dihydro-1,8-naphthyridine-3-carboxamide]
21	92	CC(C)(NC(=O)c1cn(-c2c(F)cc(F)cc2F)c2nc(N3CCOCC3)c(F)cc2c1=O)C(F)(F)F [Example 149, 6-Fluoro-7-(morpholin-4-yl)-4-oxo-N-(1,1,1-trifluoro-2-methylpropan-2-yl)-1-(2,4,6-trifluorophenyl)-1,4-dihydro-1,8-naphthyridine-3-carboxamide]
24	93	CC(C)(NC(=O)c1cn(-c2c(F)cc(F)cc2F)c2nc(N3CCOCC3)c(F)cc2c1=O)C(F)F [Example 150, N-(1,1-Difluoro-2-methylpropan-2-yl)-6-fluoro-7-(morpholin-4-yl)-4-oxo-1-(2,4,6-trifluoro-phenyl)-1,4-dihydro-1,8-naphthyridine-3-carboxamide]
24	100	CC[C@H](NC(=O)c1cn(-c2c(F)cc(F)cc2F)c2nc(N3CCOCC3)c(F)cc2c1=O)C(F)(F)F [Example 151, 6-Fluoro-7-(morpholin-4-yl)-4-oxo-N-[(2S)-1,1,1-trifluorobutan-2-yl]-1-(2,4,6-trifluoro-phenyl)-1,4-dihydro-1,8-naphthyridine-3-carboxamide]
11	100	CC[C@@H](NC(=O)c1cn(-c2c(F)cc(F)cc2F)c2nc(N3C[C@@H](O)[C@@H](O)C3)c(F)cc2c1=O)C(F)(F)F [Example 155, 7-[(3R,4S)-3,4-Dihydroxypyrrolidin-1-yl]-6-fluoro-4-oxo-N-[(2R)-1,1,1-trifluorobutan-2-yl]-1-(2,4,6-trifluorophenyl)-1,4-dihydro-1,8-naphthyridine-3-carboxamide]
11	100	CC[C@@H](NC(=O)c1cn(-c2c(F)cc(F)cc2F)c2nc(N3C[C@H](O)[C@@H](O)C3)c(F)cc2c1=O)C(F)(F)F [Example 156, 7-[(3S,4S)-3,4-Dihydroxypyrrolidin-1-yl]-6-fluoro-4-oxo-N-[(2R)-1,1,1-trifluorobutan-2-yl]-1-(2,4,6-trifluorophenyl)-1,4-dihydro-1,8-naphthyridine-3-carboxamide]
3.7	100	CC(NC(=O)c1cn(-c2c(F)cc(F)cc2F)c2nc(N3C[C@@H](O)[C@H](O)C3)c(Br)cc2c1=O)C(F)(F)C(F)(F)F (stereo partly drawn) [Example 158, 6-Bromo-7-[(3R,4R)-3,4-dihydroxypyrrolidin-1-yl]-4-oxo-N-[3,3,4,4,4-pentafluorobutan-2-yl]-1-(2,4,6-trifluorophenyl)-1,4-dihydro-1,8-naphthyridine-3-carboxamide]
7.4	95	C[C@H](NC(=O)c1cn(-c2c(F)cc(F)cc2F)c2nc(N3C[C@@H](O)[C@H](O)C3)c(F)cc2c1=O)c1ccccc1 [Example 167, 7-[(3R,4R)-3,4-Dihydroxypyrrolidin-1-yl]-6-fluoro-4-oxo-N-[(1S)-1-phenylethyl]-1-(2,4,6-tri-fluorophenyl)-1,4-dihydro-1,8-naphthyridine-3-carboxamide]
17	99	CC[C@H](NC(=O)c1cn(-c2c(F)cc(F)cc2F)c2nc(N3C[C@H](O)[C@@H](O)C3)c(F)cc2c1=O)C(F)(F)F [Example 178, 7-[(3S,4S)-3,4-Dihydroxypyrrolidin-1-yl]-6-fluoro-4-oxo-N-[(2S)-1,1,1-trifluorobutan-2-yl]-1-(2,4,6-trifluorophenyl)-1,4-dihydro-1,8-naphthyridine-3-carboxamide]
8.5	86	CN(C)c1nc2c(cc1F)c(=O)c(C(=O)NC(C(F)(F)F)C(F)(F)F)cn2-c1c(F)cc(F)cc1Cl [Example 180, 1-(2-Chloro-4,6-difluorophenyl)-7-(dimethylamino)-6-fluoro-N-(1,1,1,3,3,3-hexafluoropropan-2-yl)-4-oxo-1,4-dihydro-1,8-naphthyridine-3-carboxamide]
13	83	CC(NC(=O)c1cn(-c2c(F)cc(F)cc2F)c2nc(N3CCC(O)C(O)C3)c(F)cc2c1=O)C(F)(F)C(F)(F)F (stereo not drawn) [Example 181, 7-(3,4-Dihydroxypiperidin-1-yl)-6-fluoro-4-oxo-N-(3,3,4,4,4-pentafluorobutan-2-yl)-1-(2,4,6-trifluorophenyl)-1,4-dihydro-1,8-naphthyridine-3-carboxamide]
